Numbered stars: 1 amine (or outer) side, 2 acyl side, 3 side chain; on linkers, the order of the positions; unused ones are H or OH. Peptide text beside a SMILES is read from it. * marks the point of attachment. C18 diacid = O=C(O)CCCCCCCCCCCCCCCCC(=O)*; γGlu = O=C(O)[C@H](CCC(=O)[*:2])N[*:1]; C14 diacid = O=C(O)CCCCCCCCCCCCC(=O)*; Palmitoyl = CCCCCCCCCCCCCCCC(=O)*
Assays:
[1] = biological target: T1, Amylin receptor AMY3; CALCR/RAMP3 (Homo sapiens, UniProt O60896+P30988); experiment: Agonist activity at human amylin receptor expressed in BHK570 cells co-expressing RAMP3 assessed as increase in intracellular cAMP concentration incubated for 3 hrs in absence of albumin by CRE luciferase reporter gene assay; assay type: functional, cell-based
T1 sequence (P30988 whole entry): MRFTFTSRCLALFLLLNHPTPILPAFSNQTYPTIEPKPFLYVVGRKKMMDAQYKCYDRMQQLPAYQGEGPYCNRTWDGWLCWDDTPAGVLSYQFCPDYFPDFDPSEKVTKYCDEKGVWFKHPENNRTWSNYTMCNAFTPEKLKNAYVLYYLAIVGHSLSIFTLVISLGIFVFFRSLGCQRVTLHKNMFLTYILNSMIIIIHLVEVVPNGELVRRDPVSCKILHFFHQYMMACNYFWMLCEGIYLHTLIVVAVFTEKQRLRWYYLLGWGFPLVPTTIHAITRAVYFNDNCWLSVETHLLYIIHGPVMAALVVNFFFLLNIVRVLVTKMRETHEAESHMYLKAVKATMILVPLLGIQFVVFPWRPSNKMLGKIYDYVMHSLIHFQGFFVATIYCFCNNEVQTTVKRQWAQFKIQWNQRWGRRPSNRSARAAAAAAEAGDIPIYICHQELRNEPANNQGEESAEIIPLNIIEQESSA
T1 sequence (O60896 whole entry): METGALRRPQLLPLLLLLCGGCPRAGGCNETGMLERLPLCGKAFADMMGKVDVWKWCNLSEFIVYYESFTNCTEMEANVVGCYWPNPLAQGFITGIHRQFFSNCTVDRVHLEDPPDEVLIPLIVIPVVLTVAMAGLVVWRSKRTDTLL

[2] = biological target: T2, Calcitonin receptor (Homo sapiens, UniProt P30988); experiment: Agonist activity at human calcitonin receptor expressed in BHK570 cells assessed as increase in intracellular cAMP concentration incubated for 3 hrs in absence of albumin by CRE luciferase reporter gene assay; assay type: functional, cell-based
T2 sequence (P30988 whole entry): T1 sequence (P30988 whole entry)

[3] = Solubility in 100 mM glycylglycine buffer at pH 3.0 incubated for 18 hrs by UPLC analysis; assay type: physicochemical
[4] = Solubility in 100 mM glycylglycine buffer at pH 4.0 incubated for 18 hrs by UPLC analysis; assay type: physicochemical
[5] = Solubility in 100 mM bistrispropane buffer at pH 6.0 incubated for 18 hrs by UPLC analysis; assay type: physicochemical
[6] = Solubility in 100 mM glycylglycine buffer at pH 5.0 incubated for 18 hrs by UPLC analysis; assay type: physicochemical
[7] = Solubility in 100 mM bistrispropane buffer at pH 6.5 incubated for 18 hrs by UPLC analysis; assay type: physicochemical
[8] = Solubility in 100 mM bistrispropane buffer at pH 7.0 incubated for 18 hrs by UPLC analysis; assay type: physicochemical
[9] = Solubility in 100 mM bistrispropane buffer at pH 7.5 incubated for 18 hrs by UPLC analysis; assay type: physicochemical
[10] = Solubility in 100 mM bistrispropane buffer at pH 8.0 incubated for 18 hrs by UPLC analysis; assay type: physicochemical
[11] = biological target: T1, Amylin receptor AMY3; CALCR/RAMP3; experiment: Displacement of [125I]-labeled rat amylin from human amylin receptor expressed in BHK tkts13 whole cells co-expressing RAMP3 incubated for 60 mins by scintillation proximity assay; assay type: cell-based

| EC50 [1] [nM] | EC50 [2] [nM] | solubility at 18 h [3] [µM] | solubility at 18 h [4] [µM] | solubility at 18 h [5] [µM] | solubility at 18 h [6] [µM] | solubility at 18 h [7] [µM] | solubility at 18 h [8] [µM] | solubility at 18 h [9] [µM] | solubility at 18 h [10] [µM] | IC50 [11] [nM] | SMILES |
| --- | --- | --- | --- | --- | --- | --- | --- | --- | --- | --- | --- |
| 0.01 | 0.013 | ≥ 200 | ≥ 200 | ≥ 200 | ≥ 200 | ≥ 200 | ≥ 200 | ≥ 200 | ≥ 200 | 0.435 | CCCCCCCCCCCCCCCC(=O)N[C@@H](CCC(=O)O)C(=O)N[C@@H](C)C(=O)N[C@@H](CO)C(=O)N[C@@H](CCC(=O)O)C(=O)N[C@@H](CC(C)C)C(=O)N[C@@H](CO)C(=O)N[C@H](C(=O)N[C@@H](C)C(=O)N[C@@H](C)C(=O)N[C@@H](CC(C)C)C(=O)NCC(=O)N[C@@H](CCCNC(=N)N)C(=O)N[C@@H](CC(C)C)C(=O)N[C@@H](CO)C(=O)N[C@@H](C)C(=O)N[C@@H](CCC(=O)O)C(=O)N[C@@H](CC(C)C)C(=O)N[C@@H](Cc1cnc[nH]1)C(=O)N[C@@H](CCC(=O)O)C(=O)N[C@@H](CC(C)C)C(=O)N[C@@H](C)C(=O)N[C@H](C(=O)N[C@@H](CC(C)C)C(=O)N1CCC[C@H]1C(=O)N[C@@H](CCCNC(=N)N)C(=O)N[C@H](C(=O)N[C@@H](CCC(=O)O)C(=O)N[C@H](C(=O)NCC(=O)N1CCC[C@H]1C(=O)N[C@@H](CCC(=O)O)C(=O)N[C@@H](CO)C(=O)N1CCC[C@H]1C(N)=O)[C@@H](C)O)[C@@H](C)O)[C@@H](C)O)[C@@H](C)O (Palmitoyl-EASELSTAALGRLSAELHELATLPRTETGPESP-NH2) |
| 0.008 | 0.003 | ≥ 200 | ≥ 200 | ≥ 200 | ≥ 200 | ≥ 200 | ≥ 200 | ≥ 200 | ≥ 200 | 1.14 | CC(C)C[C@H](NC(=O)[C@H](C)NC(=O)[C@H](C)NC(=O)[C@@H](NC(=O)[C@H](CO)NC(=O)[C@H](CC(C)C)NC(=O)[C@H](CCC(=O)O)NC(=O)[C@H](CO)NC(=O)[C@H](C)NC(=O)CC[C@H](NC(=O)CCCCCCCCCCCCC(=O)O)C(=O)O)[C@@H](C)O)C(=O)NCC(=O)N[C@@H](CCCNC(=N)N)C(=O)N[C@@H](CC(C)C)C(=O)N[C@@H](CO)C(=O)N[C@@H](C)C(=O)N[C@@H](CCC(=O)O)C(=O)N[C@@H](CC(C)C)C(=O)N[C@@H](Cc1cnc[nH]1)C(=O)N[C@@H](CCC(=O)O)C(=O)N[C@@H](CC(C)C)C(=O)N[C@@H](C)C(=O)N[C@H](C(=O)N[C@@H](CC(C)C)C(=O)N1CCC[C@H]1C(=O)N[C@@H](CCCNC(=N)N)C(=O)N[C@H](C(=O)N[C@@H](CCC(=O)O)C(=O)N[C@H](C(=O)NCC(=O)N1CCC[C@H]1C(=O)N[C@@H](CCC(=O)O)C(=O)N[C@@H](CO)C(=O)N1CCC[C@H]1C(N)=O)[C@@H](C)O)[C@@H](C)O)[C@@H](C)O ({C14 diacid-γGlu}-ASELSTAALGRLSAELHELATLPRTETGPESP-NH2) |
| 0.032 | 0.013 | ≥ 200 | ≥ 200 |  | ≥ 200 | ≥ 200 | ≥ 200 | ≥ 200 | ≥ 200 | 0.812 | CC(C)C[C@H](NC(=O)[C@H](CCC(=O)O)NC(=O)[C@H](Cc1cnc[nH]1)NC(=O)[C@H](CC(C)C)NC(=O)[C@H](CCC(=O)O)NC(=O)[C@H](C)NC(=O)[C@H](CO)NC(=O)[C@H](CC(C)C)NC(=O)[C@H](CCCNC(=N)N)NC(=O)CNC(=O)[C@H](CC(C)C)NC(=O)[C@@H](NC(=O)[C@H](C)NC(=O)[C@@H](NC(=O)[C@H](CO)NC(=O)[C@@H](NC(=O)[C@H](CCC(=O)O)NC(=O)[C@H](CO)NC(=O)[C@H](C)NC(=O)CC[C@H](NC(=O)CCCCCCCCCCCCCCCCC(=O)O)C(=O)O)C(C)C)[C@@H](C)O)C(C)C)C(=O)N[C@@H](C)C(=O)N[C@H](C(=O)N[C@@H](CC(C)C)C(=O)N1CCC[C@H]1C(=O)N[C@@H](CCCNC(=N)N)C(=O)N[C@H](C(=O)N[C@@H](CCC(=O)O)C(=O)N[C@H](C(=O)NCC(=O)N[C@@H](CO)C(=O)NCC(=O)N[C@@H](CO)C(=O)N1CCC[C@H]1C(N)=O)[C@@H](C)O)[C@@H](C)O)[C@@H](C)O ({C18 diacid-γGlu}-ASEVSTAVLGRLSAELHELATLPRTETGSGSP-NH2) |
| 0.009 | 0.013 | ≥ 200 | ≥ 200 | ≥ 200 | ≥ 200 | ≥ 200 | ≥ 200 | ≥ 200 | ≥ 200 | 0.428 | CC(C)C[C@H](NC(=O)[C@H](C)NC(=O)[C@H](C)NC(=O)[C@@H](NC(=O)[C@H](CO)NC(=O)[C@H](CC(C)C)NC(=O)[C@H](CCC(N)=O)NC(=O)[C@H](CO)NC(=O)[C@H](C)NC(=O)CC[C@H](NC(=O)CCCCCCCCCCCCCCCCC(=O)O)C(=O)O)[C@@H](C)O)C(=O)NCC(=O)N[C@@H](CCCNC(=N)N)C(=O)N[C@@H](CC(C)C)C(=O)N[C@@H](CO)C(=O)N[C@@H](C)C(=O)N[C@@H](CCC(N)=O)C(=O)N[C@@H](CC(C)C)C(=O)N[C@@H](Cc1cnc[nH]1)C(=O)N[C@@H](CCC(=O)O)C(=O)N[C@@H](CC(C)C)C(=O)N[C@@H](C)C(=O)N[C@H](C(=O)N[C@@H](CC(C)C)C(=O)N1CCC[C@H]1C(=O)N[C@@H](CCCNC(=N)N)C(=O)N[C@H](C(=O)N[C@@H](CCC(=O)O)C(=O)N[C@H](C(=O)NCC(=O)N[C@@H](CO)C(=O)NCC(=O)N[C@@H](CO)C(=O)N1CCC[C@H]1C(N)=O)[C@@H](C)O)[C@@H](C)O)[C@@H](C)O ({C18 diacid-γGlu}-ASQLSTAALGRLSAQLHELATLPRTETGSGSP-NH2) |
| 0.008 | 0.006 | ≥ 200 | ≥ 200 | ≥ 200 | ≥ 200 | ≥ 200 | ≥ 200 | ≥ 200 | ≥ 200 | 0.832 | CC(C)C[C@H](NC(=O)[C@H](C)NC(=O)[C@H](C)NC(=O)[C@@H](NC(=O)[C@H](CO)NC(=O)[C@H](Cc1cnc[nH]1)NC(=O)[C@H](CCC(=O)O)NC(=O)[C@H](CO)NC(=O)[C@H](C)NC(=O)[C@H](CCC(=O)O)NC(=O)CCCCCCCCCCCCCCCCC(=O)O)[C@@H](C)O)C(=O)NCC(=O)N[C@@H](CCCNC(=N)N)C(=O)N[C@@H](CC(C)C)C(=O)N[C@@H](CO)C(=O)N[C@@H](C)C(=O)N[C@@H](CCC(=O)O)C(=O)N[C@@H](CC(C)C)C(=O)N[C@@H](Cc1cnc[nH]1)C(=O)N[C@@H](CCC(=O)O)C(=O)N[C@@H](CC(C)C)C(=O)N[C@@H](C)C(=O)N[C@H](C(=O)N[C@@H](CC(C)C)C(=O)N1CCC[C@H]1C(=O)N[C@@H](CCCNC(=N)N)C(=O)N[C@H](C(=O)N[C@@H](CCC(=O)O)C(=O)N[C@H](C(=O)NCC(=O)N1CCC[C@H]1C(=O)N[C@@H](CCC(=O)O)C(=O)N[C@@H](CO)C(=O)N1CCC[C@H]1C(N)=O)[C@@H](C)O)[C@@H](C)O)[C@@H](C)O ({C18 diacid}-EASEHSTAALGRLSAELHELATLPRTETGPESP-NH2) |
| 0.016 | 0.005 | ≥ 200 |  | ≥ 200 | ≥ 200 | ≥ 200 | ≥ 200 | ≥ 200 | ≥ 200 | 0.417 | CC[C@H](C)[C@H](NC(=O)[C@H](C)NC(=O)[C@@H](NC(=O)[C@H](CO)NC(=O)[C@H](CC(C)C)NC(=O)[C@H](CCC(=O)O)NC(=O)[C@H](CO)NC(=O)[C@H](C)NC(=O)[C@H](CCC(=O)O)NC(=O)CCCCCCCCCCCCCCCCC(=O)O)[C@@H](C)O)C(=O)N[C@@H](CC(C)C)C(=O)NCC(=O)N[C@@H](CCCNC(=N)N)C(=O)N[C@@H](CC(C)C)C(=O)N[C@@H](CO)C(=O)N[C@@H](C)C(=O)N[C@@H](CCC(=O)O)C(=O)N[C@@H](CC(C)C)C(=O)N[C@@H](Cc1cnc[nH]1)C(=O)N[C@@H](CCC(=O)O)C(=O)N[C@@H](CC(C)C)C(=O)N[C@@H](C)C(=O)N[C@H](C(=O)N[C@@H](CC(C)C)C(=O)N1CCC[C@H]1C(=O)N[C@@H](CCCNC(=N)N)C(=O)N[C@H](C(=O)N[C@@H](CCC(=O)O)C(=O)N[C@H](C(=O)NCC(=O)N1CCC[C@H]1C(=O)N[C@@H](CCC(=O)O)C(=O)N[C@@H](CO)C(=O)N1CCC[C@H]1C(N)=O)[C@@H](C)O)[C@@H](C)O)[C@@H](C)O ({C18 diacid}-EASELSTAILGRLSAELHELATLPRTETGPESP-NH2) |
